In one data set the test system is ME180 cells. The experiment in a line: XTT cell viability in the CD4-independent transmission assay. As to the method:
ME180 cells, a CD4 negative, X4 positive cervical epithelial cell line is maintained in RPMI 1640 supplemented with 10% fetal bovine serum, glutamine and antibiotics. Twenty-four h prior to the assay ME180 cells are trypsonized, washed and seeded in 96-well flat bottom microtiter plates at a density of 2×10^3 cells per well. On the day of the assay, H9 cells chronically infected with the SK1 clinical isolate of HIV-1 (H9-SK1) are treated with freshly made mitomycin C (200 μg/ml) for 60 minutes at 37° C. This concentration of mitomycin C is sufficient to result in cell death, but allows virus transmission to occur. After mitomycin C treatment the H9-SK1 cells are washed three times with tissue culture medium. Test compounds are added to the ME180 monolayer followed by 2×10^4 H9-SK1 cells. The ME180 cells are co-cultured with H9-SK-1 cells and test material for 4 h, and the H9-SK1 cells are removed by washing the ME180 monolayer three times with PBS. At 24 and 48 h post assay initiation the wells are again washed three times with PBS to ensure removal of the H9-SK1 cells, and culture continued in test material free media. At six days post-co-cultivation, supernatants are collected and evaluated for p24 antigen expression by ELISA. Cell viability is assessed by XTT dye reduction. […] Testing in the presence of mucin is carried out by addition of 200 µg/ml of porcine mucin (Sigma Chemical Co., St Louis, Mo.) to the transmission reactions. Transmission intervals and washing without replacement of mucin or compound are carried as described above. All determinations are performed in triplicate with serial ½ Log10 dilution of the test materials.
TC50 values for the test materials are derived by measuring the reduction of the tetrazolium dye XTT (2,3-bis(2-methoxy-4-nitro-5-sulfophenyl)-5-[(phenylamino)carbonyl]-2H-tetrazolium hydroxide) in replicate microtiter plates containing cell and compound without virus. […] XTT solution is prepared daily as a stock of 1 mg/mL in PBS. Phenazine methosulfate (PMS) solution is prepared at 15 mg/mL in PBS and stored in the dark at −20° C. XTT/PMS stock is prepared immediately before use by diluting the PMS 1:100 into PBS and adding 40 µl per mL of XTT solution. Fifty microliters of XTT/PMS are added to each well of the plate and the plate incubated for 4 h at 37° C. The 4 h incubation has been empirically determined to be within the linear response range for […] dye reduction with the indicated numbers of cells for each assay. Adhesive plate sealers are used in place of the lids, the sealed plate is inverted several times to mix the soluble formazan product and the plate is read at 450 nm with a Molecular Devices Vmax 96 well plate format spectrophotometer.
Dextran sulfate (positive) and dextran (negative) are used as controls for the CD4-dependent and CD4-independent HIV transmission inhibition assays. […] Commercially available Penicillin (10,000 U/ml) Streptomycin (10.0 mg/ml) solution is used as a positive control for the Lactobacillus sensitivity assay.
In general terms: Formazan colour is commonly taken as a measure of viable cells.

The test system of another data set is GHOST(3) X4/R5 cell line. The experiment in a line: XTT cell viability in the CD4-dependent transmission assay. The class given is cell-based, human. The procedure: The […] is carried out essentially as described for the CD4-independent transmission assay except for the use of the CD4 positive GHOST(3) X4/R5 cell line. This cell line is derived from the HOS (human osteosarcoma) cell line that is negative for HIV coreceptor and CD4 expression. The cell line is engineered to express T4 (CD4), R5 and X4 via non-selectable retroviral vectors and an HIV-2 LTR hGFP construct with a hygromycin selectable marker. The cell lines are handled and cultured as described above for the CD4-independent HIV inhibition assay, with the exception that 2.5×10^4 GHOST(3) X4/R5 and 5×10^2 mitomycin C treated H9/SK-1 cells are used in the assay. Addition of compounds, mitomycin C treatment and post-transmission washing to remove the H9/SK-1 cells are performed as described above to allow comparability of the two antiviral assays. Virus replication is assessed at 24 h post infection, following 3 washes, by measurement of cell-associated p24 by ELISA to ensure a single round of infection in the presence of CD4. Compound toxicity and cell viability are assessed by XTT dye reduction.

Data set [1] addresses T1, cell-to-cell fusion mediated by HIV-1 Env and CD4 (Human immunodeficiency virus type 1 group M subtype B, UniProt P04578).
T1 construct: expressed in transfected cells; host or cells: HeLa CD4 LTR beta-gal cells (CD4) co-cultured with HL2/3 cells (HIV-1 Env)
The class given is cell-based. The following applies: TC50/IC50. As to the method: (§1) The fusion assay assesses the ability of compounds to block cell-to-cell fusion mediated by HIV-1 Env and CD4 expressed on separate cells. This assay is sensitive to inhibitors of both the gp120/CD4 interaction and inhibitors of the X4 coreceptor. First, 5×10^3 HeLa CD4 LTR […]-gal cells are placed in microtiter wells and incubated overnight. The following day the media is removed and the HeLa CD4 LTR […]-gal cells are incubated for 1 h at 37° C. in fresh media with test compound. Following the incubation 5×10^3 HL2/3 cells are added and the incubation continued for 40 to 48 h. At 40 to 48 h […]-galactosidase enzyme expression is detected by chemiluminescence (Tropix Gal-screen™, Tropix, Bedford, Mass.). Compound toxicity is monitored on a sister plate using XTT dye reduction.

Data set [2] deals with HeLa CD4 LTR […]-gal cells. The experiment in a line: XTT toxicity on sister plate of the attachment assay. The class given is cell-based. The note with it: XTT, sister plate. The procedure:
This assay is designed to detect compounds that interact with the cell and block virus attachment, and/or compounds which interact with the forming attachment/fusion complex. The attachment assay is performed with HeLa CD4 LTR […]-gal cells. HeLa CD4 LTR […]-gal cells are routinely cultured with the required selection antibiotics. Twenty-four h prior to initiation of the assay the cells are trypsinized, counted and 1×10^4 cells placed in a 0.2 cm well in media without selection antibiotics. At 24 h media is removed and compound in media placed on the cells and incubated for 15 min at 37° C. A known titer of the IIIB strain of HIV is then added to the wells and the incubation continued for 1 h. At the end of the incubation the wells are washed 3 times with media and the culture continued for 40 to 48 h. At termination of the assay, media is removed and […]-galactosidase enzyme expression determined by chemiluminescence per manufacturers instructions (Tropix Gal-screen™, Bedford Mass.) by a single step chemiluminescent method using a single solution to lyse the cells and detect […]-galactosidase enzyme activity. Compound toxicity is monitored on a sister plate by XTT dye reduction. […] The virus adsorption interval of 1 h is sufficiently short that AZT, which requires phosphorylation to its active tri-phosphate form (AZT-TTP), is not active in this assay.

For data set [3], the system named is HeLa CD4 LTR […]-gal cells. Put plainly: XTT toxicity on sister plate of the fusion assay. The class given is cell-based. The following applies: XTT, sister plate. The procedure: as §1
The next data set deals with PBMCs. The experiment in a line: MTS cell viability in PBMC assay. The class given is cell-based, human. The note with it: AZT control. From the text: Human peripheral blood mononuclear cells from a minimum of 2 donors, that have been blasted with PHA and IL-2, were counted, viability determined by Trypan Blue dye exclusion and mixed in equal ratios. Pooled donors were used to minimize the variability observed between individual donors which results from quantitative and qualitative differences in HIV infection and overall response to the PHA and IL-2 of primary lymphocyte populations. The cells were resuspended at 1×10^6 cells/mL in RPMI 1640 without phenol red supplemented with 15% Fetal Bovine Serum (heat inactivated), 2 mM L-glutamine, 100 U/mL penicillin, 100 μg/mL streptomycin, 10 μg/mL gentamycin and IL-2 (20 U/mL, R&D Systems, Minneapolis, Minn.). Fifty microliters of cells were then distributed to the inner 60 wells of a 96 well round bottom microtiter culture plate in a standard format developed by the Infectious Disease Research department of Southern Research Institute. Each plate contains cell control wells (cells only), virus control wells (cells plus virus), and experimental wells (drug plus cells plus virus). Serially diluted compounds are added to the microtiter plate followed by the appropriate pre-titered strain of HIV-1 or SHIV-1. All samples were assayed in triplicate with a replicate plate without virus for the determination of compound toxicity. The final volume per well was 200 µL. The assay was incubated for 6 days in a humidified atmosphere at 37° C., 5% CO2, after which supernatants were collected, for analysis of RT activity and sister plates analyzed for cell viability by MTS dye reduction. Wells were also examined microscopically and any abnormalities noted.
At assay termination the assay plates were stained with the soluble tetrazolium-based dye MTS (CellTiter® Reagent Promega, Madison, Wis.) to determined cell viability and quantify compound toxicity. […] At termination of the PBMC assay 20 µL of MTS reagent was added per well, and the wells are incubated for 4 h at 37° C.
AZT has been used as a relevant positive control compound for the individual assays.

Another data set concerns SHIV 89.6pd. The experiment in a line: PBMC antiviral assay (RT activity). Format: cell-based. The note with it: 6 days, AZT control, read-out: SHIV 89.6pd Infected PBMCs IC50. As to the method: (§2) Human immunodeficiency virus type 1 (HIV-1) strain RoJo is a low passage pediatric isolate derived in the laboratories of Southern Research Institute (SRI). The SHIV89.6pd was obtained from Mark Lewis at SRI and stocks grown in human PBMCs for antiviral testing.
(§3) Peripheral blood monocular cells (PBMCs) were obtained from normal hepatitis and HIV-1 negative donors by ficoll hypaque gradient separation. Briefly, anti-coagulated blood was diluted 1:1 with Dulbecco's phosphate buffered saline without Ca^++ and Mg^++ (PBS) and layered over 14 mL of Lymphocyte separation media in a 50 ml centrifuge tube. Tubes were then centrifuged for 30 minutes at 600×g. […] The mononuclear cells were counted, viability determined by Trypan Blue dye exclusion and resuspended in RPMI 1640 medium supplemented with 15% FBS (heat inactivated), 2 mM L-glutamine, 100 U/mL penicillin, 100 µg/mL streptomycin, and 10 µg/mL gentamycin with 2 µg/mL phytohemagluttin (PHA) at 1×10^6 cells/mL. […]
(§4) Human peripheral blood mononuclear cells from a minimum of 2 donors, that have been blasted with PHA and IL-2, were counted, viability determined by Trypan Blue dye exclusion and mixed in equal ratios. […] The assay was incubated for 6 days in a humidified atmosphere at 37° C., 5% CO2, after which supernatants were collected, for analysis of RT activity and sister plates analyzed for cell viability by MTS dye reduction. […]

For another data set, the system named is HIV-1 RoJo. Put plainly: PBMC antiviral assay (RT activity). The class given is cell-based. The following applies: 6 days, AZT control, read-out: HIV-1 RoJo Infected PBMCs IC50. As to the method: as §2, §3, §4

pIC50: −log10 of the molar value. “And” between values parts separate entries of the source, which are not always exact repeats. Equal entries are not always repeated.

For the molecule Dextran sulfate, the “CD4-Independent Transmission Assay TC50” value in the data set with ME180 cells (Exp. 2, with mucin) is more than 50 mg/L; with ME180 cells (Exp. 2, without mucin), more than 50 mg/L. The “CD4-Dependent Transmission Assay TC50” value is more than 100 mg/L in the data set with GHOST(3) X4/R5 cell line (Exp. 1, without mucin); more than 50 mg/L with GHOST(3) X4/R5 cell line (Exp. 2, with mucin); more than 50 mg/L in the data set on GHOST(3) X4/R5 cell line (Exp. 2, without mucin).
dextran: the “CD4-Independent Transmission Assay TC50” value is more than 100 mg/L in the data set on ME180 cells (Exp. 2, with mucin) and more than 100 mg/L in the data set on ME180 cells (Exp. 2, without mucin). In addition, the “CD4-Dependent Transmission Assay TC50” value in the data set with GHOST(3) X4/R5 cell line (Exp. 1, without mucin) was more than 100 mg/L; in the data set with GHOST(3) X4/R5 cell line (Exp. 2, with mucin) it was more than 100 mg/L; in the data set with GHOST(3) X4/R5 cell line (Exp. 2, without mucin), more than 100 mg/L.
Turning to `COc1cc(-c2ccc(/N=N/c3ccc4c(S(=O)(=O)O)cc(S(=O)(=O)O)c(N)c4c3O)c(OC)c2)ccc1/N=N/c1ccc2c(S(=O)(=O)O)cc(S(=O)(=O)O)c(N)c2c1O` [Chicago Sky Blue, reference compound], in data set [1], the “Fusion Assay TI” value is >12 and >16. Besides, in the data set on HeLa CD4 LTR […]-gal cells [2], the “Attachment Assay TC50” value was more than 10 mg/L. Also, the “Fusion Assay TC50” value in the data set with HeLa CD4 LTR […]-gal cells [3] is more than 10 mg/L.
As a reminder, the pIC50 is the IC50 on a negative log10 scale, so that one unit is a factor of ten. `Cc1cn([C@H]2C[C@H](N=[N+]=[N-])[C@@H](CO)O2)c(=O)[nH]c1=O` [AZT, reference compound]: the “HIV-1 RoJo Infected PBMCs TC50” value in the data set with PBMCs (plate of the HIV-1 RoJo test) was more than 1000 nM. Moreover, the “SHIV 89.6pd Infected PBMCs TC50” value in the data set with PBMCs (plate of the SHIV 89.6pd test) is more than 1000 nM. Besides, the figures for the pIC50 in the data set with SHIV 89.6pd and with HIV-1 RoJo were 8.70 and 8.30, respectively.

The record behind these values is patent publication US8158575B2, “Agent for the prevention and treatment of sexually transmitted diseases-I” (priority 2001, dated 2012).
